According to BindingDB's records for doi:10.1016/j.bmcl.2006.12.054 (Cephalon, 2007):

Target: Vascular endothelial growth factor receptor 2 (Homo sapiens, UniProt P35968)
Assay: Inhibition of human cytoplasmic VEGFR2 expressed in baculovirus after 15 mins by time resolved fluorescence assay

Sequence of Vascular endothelial growth factor receptor 2 (P35968 whole entry): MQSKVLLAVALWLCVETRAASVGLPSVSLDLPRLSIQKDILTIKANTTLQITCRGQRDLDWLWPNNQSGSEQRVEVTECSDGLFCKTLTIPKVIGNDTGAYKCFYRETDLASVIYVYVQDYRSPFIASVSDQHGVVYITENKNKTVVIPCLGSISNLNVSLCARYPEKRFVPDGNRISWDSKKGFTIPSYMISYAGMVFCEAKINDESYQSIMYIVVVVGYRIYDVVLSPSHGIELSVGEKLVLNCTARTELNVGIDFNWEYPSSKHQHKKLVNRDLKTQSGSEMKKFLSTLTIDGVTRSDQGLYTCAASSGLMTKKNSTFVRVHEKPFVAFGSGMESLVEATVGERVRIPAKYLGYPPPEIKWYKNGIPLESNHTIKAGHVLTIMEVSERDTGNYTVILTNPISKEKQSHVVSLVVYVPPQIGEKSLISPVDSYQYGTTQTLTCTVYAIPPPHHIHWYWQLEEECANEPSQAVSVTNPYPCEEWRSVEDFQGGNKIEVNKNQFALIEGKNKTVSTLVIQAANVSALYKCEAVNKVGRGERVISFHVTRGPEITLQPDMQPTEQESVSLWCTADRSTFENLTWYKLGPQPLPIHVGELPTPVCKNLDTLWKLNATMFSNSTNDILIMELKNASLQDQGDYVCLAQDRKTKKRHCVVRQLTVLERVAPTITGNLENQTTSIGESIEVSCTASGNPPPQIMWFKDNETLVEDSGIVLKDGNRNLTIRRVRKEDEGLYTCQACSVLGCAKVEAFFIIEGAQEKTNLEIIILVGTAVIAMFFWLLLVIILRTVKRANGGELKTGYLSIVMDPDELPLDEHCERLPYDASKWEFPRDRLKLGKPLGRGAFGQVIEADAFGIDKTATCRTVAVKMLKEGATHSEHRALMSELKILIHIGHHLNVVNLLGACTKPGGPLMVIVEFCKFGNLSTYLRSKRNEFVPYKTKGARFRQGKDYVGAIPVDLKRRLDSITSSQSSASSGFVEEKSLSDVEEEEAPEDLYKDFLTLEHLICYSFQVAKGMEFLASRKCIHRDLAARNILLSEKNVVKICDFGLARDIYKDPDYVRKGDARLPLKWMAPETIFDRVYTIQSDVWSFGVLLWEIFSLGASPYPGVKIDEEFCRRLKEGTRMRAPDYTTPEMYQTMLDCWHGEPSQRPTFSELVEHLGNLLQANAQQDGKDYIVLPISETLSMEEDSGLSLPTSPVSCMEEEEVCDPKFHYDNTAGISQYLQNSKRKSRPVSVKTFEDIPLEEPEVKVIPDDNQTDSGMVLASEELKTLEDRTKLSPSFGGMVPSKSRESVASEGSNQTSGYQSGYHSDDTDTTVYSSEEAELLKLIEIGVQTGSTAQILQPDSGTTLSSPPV

Structure (SMILES)	IC50
C=c1nns/c1=c1\[nH][nH]c(=O)c1=Cc1c[nH]c2ccc(Cl)cc12 [4-((5-chloro-1H-indol-3-yl)methylene)-3-(4-methyl-1,2,3-thiadiazol-5-yl)-1H-pyrazol-5(4H)-one]	> 0.3 µM
C=c1nns/c1=c1\[nH][nH]c(=O)c1=Cc1cn(C)c2ccc(C#N)cc12 [1-methyl-3-((3-(4-methyl-1,2,3-thiadiazol-5-yl)-5-oxo-1H-pyrazol-4(5H)-ylidene)methyl)-1H-indole-5-carbonitrile]	> 0.3 µM
